Earlier results in patent publication US12440501B2, “Cannabinoid compositions and methods of use thereof for immune modulation” (SRIN Therapeutics, Inc., priority 2019, dated 2025).

Assays:
[1] = test system: xenograft tumors; settings: regardless of Ras/Raf pathway deregulation
[2] = test system: BRAF(V600E), BRAF(wild type), c-RAF, VEGFR2, PDGFR, CSF1R, RET, c-KIT, SRC, STE20; settings: range over several intracellular kinases
[3] = test system: DLD-1
[4] = mice, 120 mg/kg i.p.
[5] = test system: HCT116
[6] = test system: VEGFR expression; settings: doses of 1-5 mg/kg
[7] = test system: HCT116; remark: listed apart in the source
[8] = test system: Caco-2
[9] = target: GPR55 (Homo sapiens, UniProt Q9Y2T6)
Sequence of GPR55 (Q9Y2T6 whole entry, species assumed): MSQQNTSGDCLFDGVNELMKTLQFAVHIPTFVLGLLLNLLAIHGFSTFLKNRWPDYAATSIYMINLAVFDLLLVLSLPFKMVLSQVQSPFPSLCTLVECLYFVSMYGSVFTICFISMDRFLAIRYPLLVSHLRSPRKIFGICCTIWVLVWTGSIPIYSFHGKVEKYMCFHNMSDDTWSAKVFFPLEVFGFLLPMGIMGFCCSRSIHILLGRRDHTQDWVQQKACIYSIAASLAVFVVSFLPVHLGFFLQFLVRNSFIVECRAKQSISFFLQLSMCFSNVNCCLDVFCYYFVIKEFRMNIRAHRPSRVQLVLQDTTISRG

[10] = test system: A549
[11] = test system: ICAM-1 expression on A549; settings: in vitro
[12] = test system: melanoma; settings: share of melanoma patients

**Q.** With Cn1cnc2c(F)c(Nc3ccc(Br)cc3F)c(C(=O)NOCCO)cc21 [MEK162] as the compound, how does the “inhibition of growth of xenograft tumors” value [1] read?
**A.** highly effective in inhibiting growth of xenograft tumors

**Q.** With C=C(C)[C@@H]1CCC(C)=C[C@H]1c1c(O)cc(CCCCC)cc1O [cannabidiol] as the compound, how does the apoptosis [3] read?
**A.** induces apoptosis

**Q.** What about the peak plasma levels [4] of the same compound?
**A.** 14.3 µg/mL

**Q.** And the plasma levels [4]?
**A.** 14300 ng/mL

**Q.** And the anti-proliferative effect [5]?
**A.** significant anti-proliferative effect

**Q.** And the VEGFR expression [6]?
**A.** significantly reduce VEGFR expression

**Q.** And the apoptosis [7]?
**A.** induces apoptosis

**Q.** And the anti-proliferative effect [8]?
**A.** significant anti-proliferative effect

**Q.** And the “activity at GPR55” value [9]?
**A.** antagonist

**Q.** What about the “inhibition of A549 invasion and metastasis” value [10] of the same compound?
**A.** profound inhibition

**Q.** And the ICAM-1 expression [11]?
**A.** upregulates ICAM-1 expression

**Q.** Which “responses in melanoma patients” value [12] does the source give for “ipilimumab: FDA-approved immune checkpoint inhibitor targeting CTLA-4” here?
**A.** ~50%

**Q.** With “nivolumab: FDA-approved immune checkpoint inhibitor targeting PD-1” as the compound, how does the “responses in melanoma patients” value [12] read?
**A.** ~50%

**Q.** Which “responses in melanoma patients” value [12] does the source give for “pembrolizumab: FDA-approved immune checkpoint inhibitor targeting PD-1” here?
**A.** ~50%
